From patent US20250368633A1, “AZEPINE FUSED RING COMPOUND AS RIPK1 INHIBITOR AND USE THEREOF” (ARTIVILA BIOPHARMA, priority 2022, published 2025)

What was measured:
U937 cells = assay: EC50 of necroptosis inhibition in U937 cells (TSZ-induced, CellTiter-Glo); assay type: cell-based; conditions: Homo sapiens, U-937; TSZ (hTNF-α, SM-164, Z-VAD-FMK) 20 hours; 10 concentration points; read-out: EC50 intervals of necroptosis inhibition in U937 cells
Method in brief: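 Luminescent ATP readout (CellTiter-Glo) after 20 h gave viability of TSZ-challenged U937 cells; compounds were added 15 min ahead of TNF-α/SM-164/Z-VAD-FMK. EC50 derived by variable-slope nonlinear regression of inhibition relative to no-TSZ and TSZ-alone controls.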

RIPK1 kinase = molecular target: T1, RIPK1 kinase (Homo sapiens, UniProt Q13546); assay: In vitro RIPK1 kinase activity IC50 assay (ADP-Glo); assay type: biochemical; conditions: ATP 10 μM; MBP substrate 100 μg/mL; 8 concentration points; read-out: IC50 range of compounds for RIPK1 kinase activity
T1 construct: purchased Promega VA7593
T1 sequence (Q13546 1-671): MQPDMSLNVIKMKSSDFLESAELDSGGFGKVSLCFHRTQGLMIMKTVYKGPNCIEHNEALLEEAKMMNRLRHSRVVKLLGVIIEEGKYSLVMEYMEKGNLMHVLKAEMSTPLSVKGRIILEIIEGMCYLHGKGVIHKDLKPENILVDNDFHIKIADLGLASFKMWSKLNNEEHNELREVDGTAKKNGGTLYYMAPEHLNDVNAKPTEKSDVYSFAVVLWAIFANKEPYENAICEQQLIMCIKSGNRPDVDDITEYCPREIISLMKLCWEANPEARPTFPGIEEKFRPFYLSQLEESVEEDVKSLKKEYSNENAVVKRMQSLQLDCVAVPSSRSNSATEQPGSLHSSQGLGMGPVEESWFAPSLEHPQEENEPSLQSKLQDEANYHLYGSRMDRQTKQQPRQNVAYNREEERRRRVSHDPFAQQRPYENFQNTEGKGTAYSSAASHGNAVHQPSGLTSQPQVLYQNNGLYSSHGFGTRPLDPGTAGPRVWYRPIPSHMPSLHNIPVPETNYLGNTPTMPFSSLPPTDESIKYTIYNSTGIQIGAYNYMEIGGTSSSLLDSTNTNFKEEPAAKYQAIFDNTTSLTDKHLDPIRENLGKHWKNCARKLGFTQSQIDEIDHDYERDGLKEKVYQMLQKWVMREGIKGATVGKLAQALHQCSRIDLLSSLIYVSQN
Method in brief: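 Human RIPK1 preincubated 15 min at room temperature with compound (8-point 1:5 dilution series, 1% DMSO in kinase buffer D). Reaction then ran 1 h with 10 μM ATP and 100 μg/mL MBP substrate; ADP measured by ADP-Glo luminescence, IC50 from four-parameter nonlinear fit.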

Row | Structure (SMILES) | EC50 (U937 cells) [nM] | IC50 (RIPK1 kinase) [nM]
1 | CN1C(=O)[C@@H](NC(=O)C(=O)NCCc2ccccc2)COc2ccc(C#CC3(O)CCOC3)cc21 (stereo partly drawn) [Example 80, N^1-((3S)-7-((3-hydroxytetrahydrofuran-3-yl)ethynyl)-5-methyl-4-oxo-2,3,4,5-tetrahydrobenzo[b][1,4]oxazepin-3-yl)-N^2-phenethyloxalamide] | < 100 | < 100
2 | CN1C(=O)[C@@H](NC(=O)C(=O)NCCc2ccccc2)COc2ccc(C#CCN3CCC(O)CC3)cc21 [Example 81, (S)—N^1-(7-(3-(4-hydroxypiperidin-1-yl)prop-1-yn-1-yl)-5-methyl-4-oxo-2,3,4,5-tetrahydrobenzo[b][1,4]oxazepin-3-yl)-N^2-phenethyloxalamide] | < 100 | < 100
3 | CN1C(=O)[C@@H](NC(=O)C(=O)NCCc2ccccc2)COc2ccc(C#CCN3C(=O)CCC3=O)cc21 [Example 84, (S)—N^1-(7-(3-(2,5-dioxopyrrolidin-1-yl)prop-1-yn-1-yl)-5-methyl-4-oxo-2,3,4,5-tetrahydrobenzo[b][1,4]oxazepin-3-yl)-N^2-phenethyloxalamide] | < 100 | < 100
4 | CN1C(=O)[C@@H](NC(=O)C(=O)NCCc2ccccc2)COc2ccc(C#CCN3CCNC(=O)C3)cc21 [Example 85, (S)—N^1-(5-methyl-4-oxo-7-(3-(3-oxopiperazin-1-yl)prop-1-yn-1-yl)-2,3,4,5-tetrahydrobenzo[b][1, 4]oxazepin-3-yl)-N^2-phenethyloxalamide] | < 100 | < 100
5 | CN1C(=O)[C@@H](NC(=O)C(=O)NCCc2ccccc2)COc2ccc(C#CCNC(=O)OC(C)(C)C)cc21 [Example 86, tert-butyl (S)-(3-(5-methyl-4-oxo-3-(2-oxo-2-(phenethylamino)acetamido)-2,3,4,5-tetrahydrobenzo[b][1,4]oxazepin-7-yl)prop-2-yn-1-yl)carbamate] | < 100 | < 100
6 | CN1C(=O)[C@@H](NC(=O)C(=O)NCCc2ccccc2)COc2ccc(C#CCNC(=O)CO)cc21 [Example 88, (S)—N^1-(7-(3-(2-hydroxyacetamido)prop-1-yn-1-yl)-5-methyl-4-oxo-2,3,4,5-tetrahydrobenzo[b][1, 4]oxazepin-3-yl)-N^2-phenethyloxalamide] | < 100 | < 100
7 | C=CC(=O)NCC#Cc1ccc2c(c1)N(C)C(=O)[C@@H](NC(=O)C(=O)NCCc1ccccc1)CO2 [Example 89, (S)—N^1-(7-(3-acrylamidoprop-1-yn-1-yl)-5-methyl-4-oxo-2,3,4,5-tetrahydrobenzo[b][1,4]oxazepin-3-yl)-N^2-phenethyloxalamide] | < 100 | < 100
8 | CN1C(=O)[C@@H](NC(=O)C(=O)NCCc2ccccc2)COc2ccc(C#CC3CN(C=O)C3)cc21 [Example 91, (S)—N^1-(7-((1-formylazetidin-3-yl)ethynyl)-5-methyl-4-oxo-2,3,4,5-tetrahydrobenzo[b][1,4]oxazepin-3-yl)-N^2-phenethyloxalamide] | < 100 | < 100
9 | CN1C(=O)[C@@H](NC(=O)C(=O)NCCc2ccccc2)COc2ccc(C#CC3(O)CN(C=O)C3)cc21 [Example 92, (S)—N^1-(7-((1-formyl-3-hydroxyazetidin-3-yl)ethynyl)-5-methyl-4-oxo-2,3,4,5-tetrahydrobenzo[b][1,4]oxazepin-3-yl)-N^2-phenethyloxalamide] | < 100 | < 100
10 | CCOC(=O)CCC#Cc1ccc2c(c1)N(C)C(=O)[C@@H](NC(=O)C(=O)NCCc1ccccc1)CO2 [Example 94, ethyl (S)-5-(5-methyl-4-oxo-3-(2-oxo-2-(phenethylamino)acetamido)-2,3,4,5-tetrahydrobenzo[b][1,4]oxazepin-7-yl) pent-4-ynoate] | 100 to 500 | < 100
11 | CN1C(=O)[C@@H](NC(=O)C(=O)NCc2ccccc2)COc2ccc(C#CCn3ccnc3)cc21 [Example 104, (S)—N^1-(7-(3-(1H-imidazol-1-yl)prop-1-yn-1-yl)-5-methyl-4-oxo-2,3,4,5-tetrahydrobenzo[b][1,4]oxazepin-3-yl)-N^2-benzyloxalamide] | < 100 | < 100
